Results as given in PMC9404513 (ACS Omega, 2022).

Tests used:
MAO-A = target: T1, MAO-A (Homo sapiens, UniProt P21397); assay: Monoamine oxidase A inhibition; type: biochemical
T1 sequence (P21397 1-527): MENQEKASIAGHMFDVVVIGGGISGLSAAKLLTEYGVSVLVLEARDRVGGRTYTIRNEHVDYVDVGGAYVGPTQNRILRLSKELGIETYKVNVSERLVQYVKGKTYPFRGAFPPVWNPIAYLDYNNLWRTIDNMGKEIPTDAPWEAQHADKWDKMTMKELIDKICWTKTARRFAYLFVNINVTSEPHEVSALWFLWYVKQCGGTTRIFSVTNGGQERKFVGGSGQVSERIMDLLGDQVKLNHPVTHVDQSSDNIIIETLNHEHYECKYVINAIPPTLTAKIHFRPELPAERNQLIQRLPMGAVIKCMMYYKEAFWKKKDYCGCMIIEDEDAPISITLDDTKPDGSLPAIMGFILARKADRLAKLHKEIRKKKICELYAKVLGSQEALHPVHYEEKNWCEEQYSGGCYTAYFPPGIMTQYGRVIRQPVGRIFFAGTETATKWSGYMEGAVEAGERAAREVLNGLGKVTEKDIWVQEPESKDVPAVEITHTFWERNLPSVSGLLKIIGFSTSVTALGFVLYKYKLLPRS

MAO-B = target: T2, MAO-B (Homo sapiens, UniProt P27338); assay: Monoamine oxidase B inhibition; type: biochemical
T2 sequence (P27338 1-520): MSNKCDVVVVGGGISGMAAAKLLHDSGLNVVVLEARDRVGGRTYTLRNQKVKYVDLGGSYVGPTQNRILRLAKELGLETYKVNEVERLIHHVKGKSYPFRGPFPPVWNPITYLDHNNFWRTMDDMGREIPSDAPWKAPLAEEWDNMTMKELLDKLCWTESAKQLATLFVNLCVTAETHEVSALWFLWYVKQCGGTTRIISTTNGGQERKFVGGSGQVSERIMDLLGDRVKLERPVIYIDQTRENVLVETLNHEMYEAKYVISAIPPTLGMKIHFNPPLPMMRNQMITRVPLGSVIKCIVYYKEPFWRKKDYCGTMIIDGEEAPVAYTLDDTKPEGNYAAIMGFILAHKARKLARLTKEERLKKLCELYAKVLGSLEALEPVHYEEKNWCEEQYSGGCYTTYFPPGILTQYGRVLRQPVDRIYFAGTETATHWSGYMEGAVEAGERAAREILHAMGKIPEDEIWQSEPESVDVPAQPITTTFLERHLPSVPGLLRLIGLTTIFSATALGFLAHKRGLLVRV

[1] = Solubility in organic solvents; type: physicochemical; details: solvents in which the compound is soluble

IC50 (MAO-A): 520 ± 30 nM
IC50 (MAO-B): 1020 ± 110 nM
SMILES: CCOC(=O)C1=C(Nc2ccc(F)cc2)CC(c2ccc(C(F)(F)F)cc2)N(c2ccc(F)cc2)C1c1ccc(C(F)(F)F)cc1 (stereo not drawn) [FTEAA, Ethyl 4-(4-fluorophenylamino)-2,6-bis(4-(trifluoromethyl)phenyl)-1-(4-fluoro-phenyl)-1,2,5,6-tetrahydropyridine-3-carboxylate]
solubility [1]: acetone, chloroform, dichloromethane, ethyl acetate and ethanol
